Test results taken from PMC10120463 (Journal of Enzyme Inhibition and Medicinal Chemistry, 2023).

Assay: Haemolysis assay
Assay type: cell-based
Conditions: rabbit, rabbit red blood cell suspension

In the case of `C[C@@H]1[C@H](O)[C@@H](C)/C=C/C=C/C=C/C=C/C=C/C=C/C=C/[C@H](O[C@@H]2O[C@H](C)[C@@H](O)[C@H](N)[C@@H]2O)C[C@@H]2O[C@](O)(C[C@@H](O)C[C@@H](O)[C@H](O)CC[C@@H](O)C[C@@H](O)CC(=O)O[C@H]1C)C[C@H](O)[C@H]2C(=O)O` [AmB, amphotericin B], the hemolysis at 1 h, 32 µg/mL is reported as 53.5%.
